The test system of series [1] is SARS-CoV-2 original Wuhan strain (hCoV-19/Japan/TY/WK-521,2019). In words: Antiviral activity assay in Vero E6 cells, qRT-PCR of supernatant. The format is cell-based. As to conditions: Severe acute respiratory syndrome coronavirus 2, Vero C1008, Vero E6, 72 h pretreatment, MOI 0.02, 48 h pi, compound concentration (for 5-ALA/SFC the 5-ALA concentration, ratio 4:1). In general terms: Real-time PCR tracks product formation cycle by cycle.

Series [2] is described as follows: Cell viability assay (MTT). The format is cell-based. As to conditions: African green monkey, Vero E6 cells; Vero E6, 3 days, in parallel with Delta antiviral assay; 5-ALA concentration. On the procedure:
(§1) Vero E6 cells in 96-well plates were treated with samples for 3 days, and a cell viability assay was conducted in parallel with an antiviral assay. To determine the concentration that triggered a 50% reduction in cell survival (CC50), the results of the cell viability assay were evaluated by 3-(4,5-dimethylthiazol-2-yl)-2,5-diphenyl tetrazolium bromide according to the manufacturer’s instructions (Promega, Madison, WI, USA). Optical density was measured at 570 nm using a microplate reader (Synergy H1 M; BioTek Instruments, Winooski, VT, USA). Cell viability was determined using the following equation: cell viability (%) = (sample value)/(cell control) × 100. In addition, viral inhibition by 50% (IC50) was calculated as viral inhibition (%) = quantity of virus copies in (virus control − sample)/virus control × 100.

In a further series the test system is Vero E6 cells. Nature of the series: Cell viability assay (MTT). The format is cell-based. As to conditions: Vero E6, 3 days, 5-ALA concentration. The method, then:
as §1

On the set-up of series [3]: method as in PMID 11961050. As to conditions: oral route; cited from earlier work.
Another series deals with SARS-CoV-2. Further details: method as in PMID 31781665. As to conditions: SFC only; cited from earlier work.

Data on three compounds can be found in publication PMC8739347 (Tropical Medicine and Health, 2022).

As usually defined, the IC50 is the concentration at which inhibition is half-maximal. In general, CC50 refers to the concentration at which the toxic effect on the cells reaches its halfway point.

Take `NCC(=O)CCC(=O)O` [5-ALA, 5-aminolevulinic acid]: the IC50 in series [1] stood at 207 µM. Moreover, in series [2], the CC50 at 3 days was over 2000 µM. The CC50 in the series with Vero E6 cells (in parallel with Alpha antiviral assay), in the series on Vero E6 cells (in parallel with Beta antiviral assay), in the series with Vero E6 cells (in parallel with Gamma antiviral assay) and in the series on Vero E6 cells (in parallel with Wuhan antiviral assay) was over 2000 µM throughout. Also, the bioavailability entry in series [3] is recorded as “high bioavailability”.
Turning to `CCC(CC)COC(=O)[C@H](C)N[P@](=O)(OC[C@H]1O[C@@](C#N)(c2ccc3c(N)ncnn23)[C@H](O)[C@@H]1O)Oc1ccccc1` [remdesivir, Remdesivir], in series [1], the IC50 lay in the range of 0.1 to 1 µM.
Consider Sodium ferrous citrate [SFC], for which the antiviral activity result with SARS-CoV-2 is recorded as “did not show antiviral activity”.
